Earlier results on 68 molecules are cited in patent US20040131981A1, “Color developing solution of silver halide color photographic photosensitive material and manufacturing method of color developing solution” (priority 2002, published 2004).

“And” between values parts separate entries of the source, which are not always exact repeats. Identical values can stand only once. Like-named read-outs stand apart in the source and are kept apart here.

The conditions of the data set: for Pka: pH buffering agent of alkali part solution; for pka: PH buffering agent of alkali part solutions B1-B34, Table 3; for pKa: pH buffering agents with pKa 5 to 9 for fixing and bleaching-fixing solution.

`CNCC(=O)O` [Compound I-2, H3C—NH—CH2—COOH]: the Pka (Compound I) was 10.01. Consider `CC(N)C(=O)O` (stereo not drawn) [Compound I-3], for which the pka was 9.87 and 10.26. For the same molecule, the Pka (Compound I) was 9.87. For the molecule `NCCC(=O)O` [Compound I-4, H2N—C2H4—COOH], the pka is listed as 10.26. In addition, the Pka (Compound I) was 10.26. Consider `CCC(N)C(=O)O` (stereo not drawn) [Compound I-5], for which the Pka (Compound I) is 9.66.

Turning to `CCCCC(N)C(=O)O` (stereo not drawn) [Compound I-7], where the note is “Compound I”, the Pka was 9.96. For the molecule `CC(C)CC(N)C(=O)O` (stereo not drawn) [Compound I-8], the Pka (Compound I) is 9.78. On to `NC(Cc1ccccc1)C(=O)O` (stereo not drawn) [Compound I-9], for which the Pka (Compound I) is reported as 9.18. For the molecule `NC(CO)C(=O)O` (stereo not drawn) [Compound I-11], the Pka (Compound I) is 9.12. Consider `NC(CS)C(=O)O` (stereo not drawn) [Compound I-13], for which the Pka (Compound I) is 10.28. With `CSCCC(N)C(=O)O` (stereo not drawn) [Compound I-14], the Pka (Compound I) was 9.13. For the molecule `NC(CC(=O)O)C(=O)O` (stereo not drawn) [Compound I-15], the pka is 9.62. In addition, the Pka (Compound I) is recorded as 9.62.

With `NC(CCC(=O)O)C(=O)O` (stereo not drawn) [Compound I-16], the Pka (Compound I) is on record as 9.67. On to `NCC(N)C(=O)O` (stereo not drawn) [Compound I-17], for which the Pka (Compound I) is 9.50. With `NCCCCC(N)C(=O)O` (stereo not drawn) [Compound I-19], under “Compound I”, the Pka was 10.72 and 9.18. For `N=C(N)NCCCC(N)C(=O)O` (stereo not drawn) [Compound I-20], the pka was 9.08. In addition, the Pka (Compound I) is listed as 9.08. Take `CCNCC(=O)O` [Compound I-21, H5C2—NH—CH2—COOH]: the Pka (Compound I) is reported as 10.10. For `CCCNCC(=O)O` [Compound I-22, CH3CH2CH2—NH—CH2COOH], the Pka (Compound I) is on record as 10.03. On to `CN(C)CC(=O)O` [Compound I-24], for which, under “Compound I”, the Pka was 9.80. As to `CCN(CC)CC(=O)O` [Compound I-25], the Pka (Compound I) is 10.47. Regarding `CC1CCNC1C(=O)O` (stereo not drawn) [Compound I-26], the Pka (Compound I) was 10.68.

As to `CC1C(O)CNC1C(=O)O` (stereo not drawn) [Compound I-27], the Pka (Compound I) was 9.58. As for `NC(Cc1c[nH]c2ccccc12)C(=O)O` (stereo not drawn) [Compound I-28], the Pka (Compound I) is recorded as 9.55.

With `NC1(C(=O)O)CCCC1` [Compound I-29], for the setting “Compound I”, the Pka is recorded as 10.31. In the case of `NC1(C(=O)O)CCCCC1` [Compound I-30], the Pka (Compound I) is listed as 10.13. As to `NC1(C(=O)O)CCCCCC1` [Compound I-31], the Pka (Compound I) is 10.46. Consider `O[Si](O)(O)O` [H2SiO2(OH)2, reference compound], for which the pka is 13.1. Consider `NCCN(CC(=O)O)CC(=O)O` [II-25], for which the Pka (Compound II) is listed as 11.05. With `O=C(O)CNCCNCC(=O)O` [II-26, HOOCH2C—NH—C2H4—NH—CH2COOH], the Pka (Compound II) was 9.57. For the molecule `O=C(O)CCNCCNCCC(=O)O` [II-27, HOOCH4C2—NH—C2N4—NH—C2H4COOH], the Pka (Compound II) is recorded as 9.58. For the molecule `O=C(O)CN(CCN(CC(=O)O)C1CCCCC1)CC(=O)O` [II-29], under “Compound II”, the Pka is reported as 10.15. Regarding `O=C(O)CN(CCN(CC(=O)O)C1CCCCC1O)CC(=O)O` (stereo not drawn) [II-30], the Pka (Compound II) is 10.38. Turning to `O=C(O)CN(CCN(CC(=O)O)c1ccccc1)CC(=O)O` [II-31], the Pka (Compound II) is reported as 9.84. On to `CCNCCN` [II-34, N-ethylethylenediamine], for which the pKa is listed as 7.63. Also, the Pka (Compound II) is on record as 10.56. Take `NCCNCCO` [II-37, N-(2-hydroxyethyl)ethylenediamine]: the pKa is reported as 7.21. In addition, under “Compound II”, the Pka is listed as 10.12. Take `CN(C)CCN` [II-38]: the Pka (Compound II) is reported as 10.00.

Regarding `CCN(CC)CCN` [II-39], the Pka (Compound II) is recorded as 10.02.

As for `CNCCNC` [II-40], the Pka (Compound II) is listed as 10.29. `CN(C)CCN(C)C` [II-44]: under “Compound II”, the Pka is 10.13.

As for `CC(N)C(C)N` (stereo not drawn) [II-46, NH2—CH(CH3)—CH(CH3)—NH2], the Pka (Compound II) is 9.97. Consider `NCCCN` [II-47, H2N—C3H6—NH2], for which, for the setting “Compound II”, the Pka is recorded as 10.62. Take `NCCCCN` [II-48, H2N—C4H8—NH2]: the Pka (Compound II) is 10.82 and 9.61. In the case of `NCCCCCN` [II-49, H2N—C5H10—NH2], the Pka (Compound II) was 10.96 and 10.02. Turning to `NC1CCCCC1N` (stereo not drawn) [II-50], the Pka (Compound II) was 9.99(cis).

Consider `NC1CCCCC1N` (stereo not drawn) [II-51], for which the Pka (Compound II) was 9.89(trans). In the case of `NC1CCCCCC1N` (stereo not drawn) [II-52], for the setting “Compound II”, the Pka is 10.48.

With `NCC(CN)CN` [II-54], where the note is “Compound II”, the Pka was 9.94 and 9.13.

Turning to `NCCCNCCCN` [II-55, H2N—C3H6—NH—C3H6—NH2], where the note is “Compound II”, the Pka was 11.70 and 10.77. Regarding `NCCNCCNCCN` [II-56, triethylenetetramine], the pKa was 6.67. The Pka (Compound II) was 9.92 and 9.20. For `NCC(CN)CN` [II-57, 1,3-diamino-2-aminomethylpropane], the pKa is on record as 6.44. In addition, the Pka (Compound II) was 9.92 and 9.20.

`O=C(O)CNCC(=O)O` [III-1]: the pka was 9.12. In addition, for the setting “Compound III”, the Pka was 9.12.

For `O=C(O)CCNCCC(=O)O` [III-2], where the note is “Compound III”, the Pka is 10.31. With `CN(CC(=O)O)CC(=O)O` [III-3], the Pka (Compound III) is given as 10.60. As to `CC(C)(C)CCN(CC(=O)O)CC(=O)O` [III-4], for the setting “Compound III”, the Pka is given as 10.24. For the molecule `O=C(O)CN(CCS)CC(=O)O` [III-5], the Pka (Compound III) is 10.79.

Take `O=C(O)CN(CCCO)CC(=O)O` [III-6]: for the setting “Compound III”, the Pka is reported as 9.24. Consider `O=C(O)CN(CC(=O)O)Cc1ccc(O)cc1` [III-7], for which the Pka (Compound III) is 11.79. Consider `O=C(O)CN(CC(=O)O)CP(=O)(O)O` [III-8], for which the Pka (Compound III) was 10.76. As to `O=C(O)CN(CCP(=O)(O)O)CC(=O)O` [III-9], where the note is “Compound III”, the Pka is recorded as 10.46. `NCCN(CCN)CCN` [III-14]: the Pka (Compound III) is reported as 9.60. Consider `COCCN` [III-16, CH3—O—C2H4—NH2], for which the Pka (Compound III) is recorded as 9.61. Take `OCCNCCO` [III-17]: the pka is listed as 9.00. In addition, the Pka (Compound III) was 9.00. Consider `O=C([O-])[O-].[K+].[K+]` [K2CO3 (carbonic acid)], for which the pka is given as 10.33. On to `CCN(CC)CCN` [N,N-diethylethylenediamine], for which the pKa is reported as 7.07. Consider `CN(C)CCN` [N,N-dimethylethylenediamine], for which the pKa was 6.79. Regarding `OCCNCCNCCO` [N,N′-di(2-hydroxylethyl)ethylenediamine], the pKa is reported as 7.18.

In the case of `CCNCCNCC` [N,N′-diethylethylenediamine], the pKa is on record as 7.77.

As to `CNCCNC` [N,N′-dimethylethylenediamine], the pKa is 7.47. Turning to meso-2,3-diaminopropane, the pKa is 6.92.

The term pKa denotes the pH at which an ionisable group is half protonated.
